Calls of active or inactive are those of the source. The rule behind the calls is not given here.
Columns and labels:
[1] = target: T1, NADH-cytochrome b5 reductase (Homo sapiens) (UniProt P00387); experiment: Inhibition of Cyb5R3 (unknown origin) expressed in HEK293 cells at 21.86 uM incubated for 24 hrs in presence of potassium ferricyanide and NADH by spectrophotometric assay; format: cell-based
T1 sequence (whole entry): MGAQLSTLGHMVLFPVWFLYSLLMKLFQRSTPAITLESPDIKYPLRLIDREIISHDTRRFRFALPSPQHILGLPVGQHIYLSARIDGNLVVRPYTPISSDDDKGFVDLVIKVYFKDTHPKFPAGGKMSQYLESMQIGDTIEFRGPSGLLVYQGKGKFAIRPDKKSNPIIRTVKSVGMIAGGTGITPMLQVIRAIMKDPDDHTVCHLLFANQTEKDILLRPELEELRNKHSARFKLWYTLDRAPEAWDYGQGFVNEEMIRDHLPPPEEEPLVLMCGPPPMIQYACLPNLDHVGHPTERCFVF

Homo sapiens = species on record: Homo sapiens; experiment: Reduction in systolic blood pressure in patient with acute decompensated heart failure during phase II clinical trial; format: functional
[2] = target: T2, NADH-cytochrome b5 reductase 3 (Rattus norvegicus) (UniProt P20070); experiment: Inhibition of Cyb5R3 in rat aortic VSMs assessed as reduction in decrease in sGC protein by Western blot analysis; settings: concentration not given here
T2 sequence (whole entry): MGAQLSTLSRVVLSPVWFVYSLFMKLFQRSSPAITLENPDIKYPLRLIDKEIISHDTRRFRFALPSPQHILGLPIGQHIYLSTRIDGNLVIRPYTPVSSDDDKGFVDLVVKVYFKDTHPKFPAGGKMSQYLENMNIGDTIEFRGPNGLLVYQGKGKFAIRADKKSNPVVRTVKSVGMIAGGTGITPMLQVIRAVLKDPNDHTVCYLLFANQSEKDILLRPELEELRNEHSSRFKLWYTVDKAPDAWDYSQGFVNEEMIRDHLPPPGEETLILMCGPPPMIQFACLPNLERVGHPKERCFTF

Mus musculus [3] = experiment: Induction of hypertension in C57B1/6 mouse assessed as increase in diastolic pressure at 10 mg/kg/day dosed via osmotic mini pumps for 14 days; format: functional, organism-based
Mus musculus [4] = experiment: Induction of hypertension in C57B1/6 mouse assessed as increase in systolic pressure at 10 mg/kg/day dosed via osmotic mini pumps for 14 days; format: functional, organism-based
[5] = target: T2, NADH-cytochrome b5 reductase 3 (Rattus norvegicus); experiment: Inhibition of Cyb5R3 in rat thoracodorsal arteries assessed as inhibition of DETA NONOate-induced response incubated for 24 hrs by pressure myography
Mus musculus [6] = experiment: Induction of hypertension in C57B1/6 mouse assessed as increase in mean arterial pressure at 10 mg/kg/day dosed via osmotic mini pumps for 14 days; format: functional, organism-based
[7] = target: T2, NADH-cytochrome b5 reductase 3 (Rattus norvegicus); experiment: Inhibition of Cyb5R3 in rat aortic VSMs assessed as reduction in decrease in basal cGMP levels
[8] = target: T2, NADH-cytochrome b5 reductase 3 (Rattus norvegicus); experiment: Inhibition of Cyb5R3 in rat thoracodorsal arteries assessed as inhibition of DETA NONOate-induced response incubated for 24 hrs in presence of sGC activator Bay 58-2667 by pressure myography
[9] = target: T2, NADH-cytochrome b5 reductase 3 (Rattus norvegicus); experiment: Inhibition of Cyb5R3 in DETA NONOate-stimulated rat aortic VSMs assessed as reduction in NO-induced cGMP production in presence of sGC activator Bay 58-2667

For `Oc1cc(CSc2ccccc2)nc(S)n1`, the inhibition [1] was > 80%.
`O=C(O)CCCCN(CCc1ccccc1OCc1ccc(CCc2ccccc2)cc1)Cc1ccc(C(=O)O)cc1` was tested, and the Activity (Homo sapiens) was 16.6 mmHg.
For `O=c1cc(CS[C@@H]2Nc3ccccc3O2)[nH]c(=S)[nH]1`, the inhibition [2] was < 75%, the Activity (Mus musculus [3]) was “Active” and the Activity (Mus musculus [4]) was “Active”. The inhibition [5] was “Active”, the Activity (Mus musculus [6]) was “Active” and the inhibition [7] was “Active”. The inhibition [8] was “inactive” and the inhibition [9] was “inactive”.
